pIC50: −log10 of the molar value. Where a name gives a salt, the structure may show the parent alone.
Molecular target: T1, proton pump (H+/K+-ATPase) (Sus scrofa, UniProt P19156)
T1 construct: Gastric vesicles were prepared from hog stomach via centrifugal separation; from tissue; host or cells: hog stomach (gastric vesicles, method of Rabon et al. 1988)
Test: Measurement of inhibitory effects on proton pump (H+/K+-ATPase) activities
Type: biochemical
Details: hog gastric vesicles, K+-specific H+/K+-ATPase activity, Tris-HCl buffer pH 7.4, 37° C. for 40 minutes, malachite green Pi readout
Description: 1) Preparation of Gastric Vesicles
Gastric vesicles were prepared from hog stomach via centrifugal separation (Edd C. Rabon et al., Preparation of Gastric H^+,K^+-ATPase, Methods in enzymology, vol. 157 Academic Press Inc., (1988), pp. 649-654). The protein contents of the thus prepared gastric vesicles were quantitated by Bicinchoninic Acid (BCA) kit.
2) Measurement of Inhibitory Effects on Proton Pump (H^+/K^+-ATPase) Activities
The inhibitory effects of the compounds of the present invention against proton pump activities were measured using a 96-well plate. In this assay, the K^+-specific H^+/K^+-ATPase activities were calculated based on the difference between the H^+/K^+-ATPase activity in the presence of K^+ and that in the absence of K. In the 96-well plate, 0.5% dimethyl sulfoxide (DMSO) in buffer was added to the negative and positive control groups, and the diluted compounds of the present invention were added to the test groups. All assays were performed in a reaction volume of 100 μl at room temperature. The reaction buffer solution (60 mmol/l Tris-HCl buffer, pH 7.4) including the hog gastric vesicles was added with DMSO and the compounds at various concentrations, and then further added with 10 μl of 10 mmol/1 adenosine triphosphate Tris buffer solution (60 mmol/l Tris-HCl buffer, pH 7.4) to initiate an enzyme reaction. […] The amount of monophosphate (Pi) in the reaction was measured at 570 nm using a micro plate reader (FLUOstar Omega, BMG LABTECH). The inhibition rates (%) were determined from the activity values of control groups and those of test compounds at various concentrations, and the […] of the test compounds were calculated based on the respective inhibition value (%) using the Logistic 4-parameter function of Sigmaplot 8.0 program.

T1 sequence (P19156 whole entry): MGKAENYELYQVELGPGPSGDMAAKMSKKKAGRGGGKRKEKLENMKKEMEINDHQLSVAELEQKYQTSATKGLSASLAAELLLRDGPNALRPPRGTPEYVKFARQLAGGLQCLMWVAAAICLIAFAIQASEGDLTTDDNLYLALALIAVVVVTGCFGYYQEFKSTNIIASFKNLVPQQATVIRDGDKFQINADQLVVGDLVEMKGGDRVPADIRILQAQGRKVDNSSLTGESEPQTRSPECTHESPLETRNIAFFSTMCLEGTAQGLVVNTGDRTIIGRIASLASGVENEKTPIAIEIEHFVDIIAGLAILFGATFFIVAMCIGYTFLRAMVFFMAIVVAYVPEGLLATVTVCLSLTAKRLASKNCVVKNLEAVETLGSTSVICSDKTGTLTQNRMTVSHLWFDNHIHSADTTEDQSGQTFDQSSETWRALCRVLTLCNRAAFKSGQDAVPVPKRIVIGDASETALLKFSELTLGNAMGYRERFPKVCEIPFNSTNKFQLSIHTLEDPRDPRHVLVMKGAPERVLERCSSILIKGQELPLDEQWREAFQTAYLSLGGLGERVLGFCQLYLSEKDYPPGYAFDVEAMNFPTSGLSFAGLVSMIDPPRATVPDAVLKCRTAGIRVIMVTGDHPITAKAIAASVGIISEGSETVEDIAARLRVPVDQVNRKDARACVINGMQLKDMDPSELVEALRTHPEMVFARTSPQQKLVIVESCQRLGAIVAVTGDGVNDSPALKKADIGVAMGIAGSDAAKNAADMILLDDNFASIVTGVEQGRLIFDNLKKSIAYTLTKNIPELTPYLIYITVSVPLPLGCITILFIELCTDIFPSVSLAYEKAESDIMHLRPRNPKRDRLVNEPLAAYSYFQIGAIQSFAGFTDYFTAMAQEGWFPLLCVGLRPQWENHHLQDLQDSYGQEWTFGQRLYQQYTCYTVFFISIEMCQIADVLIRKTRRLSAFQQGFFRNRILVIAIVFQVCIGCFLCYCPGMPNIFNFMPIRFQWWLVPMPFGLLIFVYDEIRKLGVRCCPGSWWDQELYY
T1 sequence (P18434 whole entry partner): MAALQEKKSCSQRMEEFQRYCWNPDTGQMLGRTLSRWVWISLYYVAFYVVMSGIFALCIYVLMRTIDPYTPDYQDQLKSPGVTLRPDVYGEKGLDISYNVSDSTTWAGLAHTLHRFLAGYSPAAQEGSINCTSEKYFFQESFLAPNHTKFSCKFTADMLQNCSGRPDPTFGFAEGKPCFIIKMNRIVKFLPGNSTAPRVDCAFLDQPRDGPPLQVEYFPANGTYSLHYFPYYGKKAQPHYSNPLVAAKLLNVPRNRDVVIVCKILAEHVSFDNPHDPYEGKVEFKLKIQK

Row | Structure (SMILES) | pIC50
1 | CNCc1cn(S(=O)(=O)c2cccnc2)c2cc(Nc3ccc(OC(F)(F)F)cc3F)ccc12 [Example 54, N-(2-fluoro-4-(trifluoromethoxy)phenyl)-3-((methylamino)methyl)-1-(pyridin-3-ylsulfonyl)-1H-indol-6-amine hydrochloride] | 5.98
2 | CNCc1cn(S(=O)(=O)c2cccnc2)c2cc(Nc3ccc(C(=O)OC)cc3Cl)ccc12 [Example 57, methyl 3-chloro-4-((3-((methylamino)methyl)-1-(pyridin-3-ylsulfonyl)-1H-indol-6-yl)amino)benzoate hydrochloride] | 6.37
3 | CNCc1cn(S(=O)(=O)c2cccnc2)c2cc(Nc3cc(F)ccc3F)ccc12 [Example 58, N-(2,5-difluorophenyl)-3-((methylamino)methyl)-1-(pyridin-3-ylsulfonyl)-1H-indol-6-amine hydrochloride] | 6.39
4 | CNCc1cn(S(=O)(=O)c2cccnc2)c2cc(Nc3cc(C)ccc3F)ccc12 [Example 59, N-(2-fluoro-5-methylphenyl)-3-((methylamino)methyl)-1-(pyridin-3-ylsulfonyl)-1H-indol-6-amine hydrochloride] | 6.46
5 | CNCc1cn(S(=O)(=O)c2cccnc2)c2cc(Nc3c(F)cccc3F)ccc12 [Example 60, N-(2,6-difluorophenyl)-3-((methylamino)methyl)-1-(pyridin-3-ylsulfonyl)-1H-indol-6-amine hydrochloride] | 5.61
6 | CNCc1cn(S(=O)(=O)c2cccnc2)c2cc(Nc3c(C)cccc3Cl)ccc12 [Example 61, N-(2-chloro-6-methylphenyl)-3-((methylamino)methyl)-1-(pyridin-3-ylsulfonyl)-1H-indol-6-amine hydrochloride] | 6.54
7 | CNCc1cn(S(=O)(=O)c2cccnc2)c2cc(Nc3ccc(F)c(F)c3)ccc12 [Example 62, N-(3,4-difluorophenyl)-3-((methylamino)methyl)-1-(pyridin-3-ylsulfonyl)-1H-indol-6-amine hydrochloride] | 6.03
8 | CNCc1cn(S(=O)(=O)c2cccnc2)c2cc(Nc3cc(OC)cc(OC)c3)ccc12 [Example 63, N-(3,5-dimethoxyphenyl)-3-((methylamino)methyl)-1-(pyridin-3-ylsulfonyl)-1H-indol-6-amine hydrochloride] | 5.88
9 | CNCc1cn(S(=O)(=O)c2cccnc2)c2cc(Nc3cc(Cl)cc(Cl)c3)ccc12 [Example 64, N-(3,5-dichlorophenyl)-3-((methylamino)methyl)-1-(pyridin-3-ylsulfonyl)-1H-indol-6-amine hydrochloride] | 5.74
10 | CNCc1cn(S(=O)(=O)c2cccnc2)c2cc(Nc3ccc(F)c(C)c3C)ccc12 [Example 66, N-(4-fluoro-2,3-dimethylphenyl)-3-((methylamino)methyl)-1-(pyridin-3-ylsulfonyl)-1H-indol-6-amine hydrochloride] | 6.57

Now from value to compound:

Row | pIC50 | Structure (SMILES)
11 | 6.42 | CNCc1cn(S(=O)(=O)c2cccnc2)c2cc(Nc3ccc(F)c(F)c3F)ccc12 [Example 67, 3-((methylamino)methyl)-1-(pyridin-3-ylsulfonyl)-N-(2,3,4-trifluorophenyl)-1H-indol-6-amine hydrochloride]
12 | 5.62 | CNCc1cn(S(=O)(=O)c2cccnc2)c2cc(Nc3ccc(F)c(OC)c3F)ccc12 [Example 68, N-(2,4-difluoro-3-methoxyphenyl)-3-((methylamino)methyl)-1-(pyridin-3-ylsulfonyl)-1H-indol-6-amine hydrochloride]
13 | 5.63 | CCOc1c(F)ccc(Nc2ccc3c(CNC)cn(S(=O)(=O)c4cccnc4)c3c2)c1F [Example 69, N-(3-ethoxy-2,4-difluorophenyl)-3-((methylamino)methyl)-1-(pyridin-3-ylsulfonyl)-1H-indol-6-amine hydrochloride]
14 | 6.52 | CNCc1cn(S(=O)(=O)c2cccnc2)c2cc(Nc3ccc(OC)c(F)c3F)ccc12 [Example 70, N-(2,3-difluoro-4-methoxyphenyl)-3-((methylamino)methyl)-1-(pyridin-3-ylsulfonyl)-1H-indol-6-amine hydrochloride]
15 | 6.37 | CCOc1ccc(Nc2ccc3c(CNC)cn(S(=O)(=O)c4cccnc4)c3c2)c(F)c1F [Example 71, N-(4-ethoxy-2,3-difluorophenyl)-3-((methylamino)methyl)-1-(pyridin-3-ylsulfonyl)-1H-indol-6-amine hydrochloride]
16 | 6.80 | CNCc1cn(S(=O)(=O)c2cccnc2)c2cc(Nc3cc(F)c(F)cc3C)ccc12 [Example 73, N-(4,5-difluoro-2-methylphenyl)-3-((methylamino)methyl)-1-(pyridin-3-ylsulfonyl)-1H-indol-6-amine hydrochloride]
17 | 6.35 | CNCc1cn(S(=O)(=O)c2cccnc2)c2cc(Nc3cc(F)c(F)cc3F)ccc12 [Example 74, 3-((methylamino)methyl)-1-(pyridin-3-ylsulfonyl)-N-(2,4,5-trifluorophenyl)-1H-indol-6-amine hydrochloride]
18 | 6.54 | CNCc1cn(S(=O)(=O)c2cccnc2)c2cc(Nc3cc(C)c(Cl)cc3C)ccc12 [Example 75, N-(4-chloro-2,5-dimethylphenyl)-3-((methylamino)methyl)-1-(pyridin-3-ylsulfonyl)-1H-indol-6-amine hydrochloride]
19 | 6.46 | CNCc1cn(S(=O)(=O)c2cccnc2)c2cc(Nc3cc(Cl)c(Cl)cc3Cl)ccc12 [Example 76, 3-((methylamino)methyl)-1-(pyridin-3-ylsulfonyl)-N-(2,4,5-trichlorophenyl)-1H-indol-6-amine hydrochloride]
20 | 6.46 | CNCc1cn(S(=O)(=O)c2cccnc2)c2cc(Nc3cc(OC)c(Cl)cc3Cl)ccc12 [Example 77, N-(2,4-dichloro-5-methoxyphenyl)-3-((methylamino)methyl)-1-(pyridin-3-ylsulfonyl)-1H-indol-6-amine hydrochloride]
21 | 5.65 | CNCc1cn(S(=O)(=O)c2cccnc2)c2cc(Nc3cc(F)c(C(F)(F)F)cc3F)ccc12 [Example 78, N-(2,5-difluoro-4-(trifluoromethyl)phenyl)-3-((methylamino)methyl)-1-(pyridin-3-ylsulfonyl)-1H-indol-6-amine hydrochloride]
22 | 5.86 | CNCc1cn(S(=O)(=O)c2cccnc2)c2cc(Nc3cc(F)c(Br)cc3F)ccc12 [Example 79, N-(4-bromo-2,5-difluorophenyl)-3-((methylamino)methyl)-1-(pyridin-3-ylsulfonyl)-1H-indol-6-amine hydrochloride]
23 | 6.77 | CNCc1cn(S(=O)(=O)c2cccnc2)c2cc(Nc3c(C)cc(C)cc3C)ccc12 [Example 80, N-mesityl-3-((methylamino)methyl)-1-(pyridin-3-ylsulfonyl)-1H-indol-6-amine hydrochloride]
24 | 6.51 | CNCc1cn(S(=O)(=O)c2cccnc2)c2cc(Nc3c(C)cc(F)cc3C)ccc12 [Example 81, N-(4-fluoro-2,6-dimethylphenyl)-3-((methylamino)methyl)-1-(pyridin-3-ylsulfonyl)-1H-indol-6-amine hydrochloride]
25 | 6.35 | CNCc1cn(S(=O)(=O)c2cccnc2)c2cc(Nc3c(F)cc(F)cc3F)ccc12 [Example 82, 3-((methylamino)methyl)-1-(pyridin-3-ylsulfonyl)-N-(2,4,6-trifluorophenyl)-1H-indol-6-amine hydrochloride]
